US7304093B2, “Ketone compounds and compositions for cholesterol management and related uses” (Esperion Therapeutics, Inc., priority 2000, dated 2007)

Experiments:
primary rat hepatocytes = assay: Inhibition of lipid synthesis ([1-14C]-acetate incorporation) in primary cultures of rat hepatocytes; assay type: cell-based; details: Hepatocyte, 4 h incubation with [1-14C]-acetate, Table 7, ranges: confidence of estimate insufficient to assign a value
Outline: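 Monolayer primary hepatocytes from male Sprague-Dawley rats, serum-free overnight, were incubated 4 h with 0, 1, 3, 10, 30, 100 or 300 μM compound and 0.25 μCi [1-14C]-acetate per well. Total lipid synthesis was read as radioactivity in the lipid phase extracted into scintillant.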

| melting point | SMILES | IC50 (primary rat hepatocytes) |
| --- | --- | --- |
|  | CC(C)(CCCCCC(=O)CCCCCC(C)(C)C(=O)O)C(=O)O [Compound 210g, 2,2,14,14-Tetramethyl-8-oxopentadecanedioic acid] | 3000 nM |
| 60 to 61.5 °C | CC(C)(CCCCC(=O)CCCCC(C)(C)C(=O)O)C(=O)O [Compound 210c, 7-Oxo-2,2,12,12-tetramethyltridecanedioic acid] | 3000 nM |
|  | CC(C)(CO)CCCCC(=O)CCCCC(C)(C)CO [Compound 214c, 1,13-Dihydroxy-2,2,12,12-tetramethyltridecan-7-one] | 4000 nM |
